Measured values published in patent US12064398B2, “Parenteral formulations” (Jazz Pharmaceuticals Research UK Limited, priority 2016, dated 2024).

Assay: Solubility screening of CBD in solvents/diluents/surfactants
Type: physicochemical
Procedure: […] All the vials were sonicated tor 5 minutes and then left on a roller mixer, mixing for 48 hours. The roller mixer was covered with aluminium foil to prevent light exposure.
After 48 hours, all samples were centrifuged, and the supernatants taken (250 or 500 μL) using a Gilson pipette and added into a 10 ml volume flask. Methanol was used to make up the volume and the samples were tested by HPLC. Sample numbers 5, 9 and 10 were assayed using visual observation as the amount of API that could be added was so high.

Q: Which “ASSAY CBD” value (Crodosal HS (0.5% w/v), HPLC) does the source give for `C=C(C)[C@@H]1CCC(C)=C[C@H]1c1c(O)cc(CCCCC)cc1O` [CBD, cannabidiol] here?
A: 2.6529 mg/mL

Q: What about the “ASSAY CBD” value (Crodosal HS (1% w/v), HPLC) of the same compound?
A: 5.4462 mg/mL

Q: What about the “ASSAY CBD” value (Crodosal HS (2% w/v), HPLC) of the same compound?
A: 5.0344 mg/mL

Q: What about the “ASSAY CBD” value (Crodosal HS (3% w/v), HPLC) of the same compound?
A: 6.3465 mg/mL

Q: What about the “ASSAY CBD” value (Crodosal HS (4% w/v), HPLC) of the same compound?
A: 7.5569 mg/mL

Q: What about the “ASSAY CBD” value (Crodosal HS (5% w/v), HPLC) of the same compound?
A: 7.9983 mg/mL

Q: What about the “ASSAY CBD” value (ETOH (0.5% v/v), HPLC) of the same compound?
A: 0.0496 mg/mL

Q: What about the “ASSAY CBD” value (ETOH (1% v/v), HPLC) of the same compound?
A: 0.0426 mg/mL

Q: What about the “ASSAY CBD” value (ETOH (3% v/v), HPLC) of the same compound?
A: 0.0054 mg/mL

Q: And the “ASSAY CBD” value (ETOH (5% v/v), HPLC)?
A: 0.0244 mg/mL

Q: What about the “ASSAY CBD” value (ETOH (100% v/v), visual observation) of the same compound?
A: >1000 mg/mL

Q: And the “ASSAY CBD” value (Glucose (5% w/v), HPLC)?
A: 0.0008 mg/mL

Q: And the “ASSAY CBD” value (Glucose (10% w/v), HPLC)?
A: 0.2379 mg/mL

Q: And the “ASSAY CBD” value (Glycerol (10% v/v), HPLC)?
A: 0.0029 mg/mL

Q: And the “ASSAY CBD” value (Glycerol (20% v/v), HPLC)?
A: 0.0437 mg/mL

Q: What about the “ASSAY CBD” value (Glycerol (40% v/v), HPLC) of the same compound?
A: 0.0859 mg/mL

Q: What about the “ASSAY CBD” value (Mannitol (5% w/v), HPLC) of the same compound?
A: 0.0009 mg/mL

Q: What about the “ASSAY CBD” value (Mannitol (10% w/v), HPLC) of the same compound?
A: 0.0148 mg/mL

Q: And the “ASSAY CBD” value (PEG400 (5% v/v), HPLC)?
A: 0.1596 mg/mL

Q: What about the “ASSAY CBD” value (PEG400 (15% v/v), HPLC) of the same compound?
A: 0.1946 mg/mL

Q: And the “ASSAY CBD” value (PEG400 (25% v/v), HPLC)?
A: 0.1617 mg/mL

Q: What about the “ASSAY CBD” value (PEG400 (100% v/v), visual observation) of the same compound?
A: >400 mg/mL

Q: And the “dissolution of the 10 mg of CBD added” value (PEG400 and ethanol increased to 50% in water)?
A: did not dissolve completely

Q: And the “ASSAY CBD” value (PVP K12 (1% w/v), HPLC)?
A: 0.0615 mg/mL

Q: What about the “ASSAY CBD” value (PVP K12 (2% w/v), HPLC, high assay result probably due to sampling problem) of the same compound?
A: 0.1746 mg/mL

Q: And the “ASSAY CBD” value (PVP K12 (3% w/v), HPLC)?
A: 0.0639 mg/mL

Q: What about the “ASSAY CBD” value (PVP K12 (5% w/v), HPLC) of the same compound?
A: 0.0157 mg/mL

Q: And the “ASSAY CBD” value (PVP K17 (1% w/v), HPLC)?
A: 0.0031 mg/mL

Q: What about the “ASSAY CBD” value (PVP K17 (2% w/v), HPLC) of the same compound?
A: 0.0433 mg/mL

Q: And the “ASSAY CBD” value (PVP K17 (3% w/v), HPLC)?
A: 0.0409 mg/mL

Q: What about the “ASSAY CBD” value (PVP K17 (5% w/v), HPLC) of the same compound?
A: 0.2360 mg/mL

Q: And the “ASSAY CBD” value (Pluronic F68 (1% w/v), HPLC)?
A: 0.1403 mg/mL

Q: And the “ASSAY CBD” value (Pluronic F68 (2% w/v), HPLC)?
A: 0.5209 mg/mL

Q: And the “ASSAY CBD” value (Pluronic F68 (3% w/v), HPLC)?
A: 0.5042 mg/mL

Q: And the “ASSAY CBD” value (Pluronic F68 (5% w/v), HPLC)?
A: 1.0654 mg/mL

Q: What about the “ASSAY CBD” value (Polysorbate 80 (0.5% w/v), HPLC) of the same compound?
A: 3.2600 mg/mL

Q: What about the “ASSAY CBD” value (Polysorbate 80 (1% w/v), HPLC) of the same compound?
A: 6.0415 mg/mL

Q: What about the “ASSAY CBD” value (Polysorbate 80 (3% w/v), HPLC) of the same compound?
A: 22.9779 mg/mL

Q: And the “ASSAY CBD” value (Polysorbate 80 (5% w/v), HPLC)?
A: 30.6529 mg/mL

Q: What about the “ASSAY CBD” value (Saline (0.45% w/v), HPLC) of the same compound?
A: 0.0021 mg/mL

Q: What about the “ASSAY CBD” value (Saline (0.9% w/v), HPLC) of the same compound?
A: 0.0551 mg/mL

Q: What about the “ASSAY CBD” value (Sucrose (5% w/v), HPLC) of the same compound?
A: 0.0202 mg/mL

Q: And the “ASSAY CBD” value (Sucrose (10% w/v), HPLC)?
A: 0.0822 mg/mL

Q: What about the “ASSAY CBD” value (Trehalose (5% w/v), HPLC) of the same compound?
A: 0.0600 mg/mL

Q: What about the “ASSAY CBD” value (Trehalose (10% w/v), HPLC) of the same compound?
A: 0.0124 mg/mL

Q: What about the “ASSAY CBD” value (t-butyl alcohol (TBA), (100% v/v), visual observation) of the same compound?
A: >600 mg/mL
